Measurements published in the NIST ThermoML archive (doi:10.1016/j.jct.2017.08.004).

Assay: molar heat capacity at constant pressure
Conditions: 101.33 kPa, Small sample (50 mg) DSC

O[C@H]1[C@H](O)[C@@H](O)[C@H](O)[C@@H](O)[C@H]1O [cis-1,2,3,5-trans-4,6-cyclohexanehexol]
Conditions	molar heat capacity at constant pressure [J/K/mol]
315.15 K, Crystal	232.92
316.15 K, Crystal	233.85
317.15 K, Crystal	235
318.15 K, Crystal	235.92
319.15 K, Crystal	236.78
320 K, Crystal	237.36
320.15 K, Crystal	237.59
321.15 K, Crystal	238.68
322.15 K, Crystal	239.43
323.15 K, Crystal	240.32
324.15 K, Crystal	241.22
325 K, Crystal	241.8
325.15 K, Crystal	242.06
326.15 K, Crystal	242.94
327.15 K, Crystal	243.8
328.15 K, Crystal	244.59
329.15 K, Crystal	245.47
330 K, Crystal	246.17
330.15 K, Crystal	246.24
331.15 K, Crystal	247.08
332.15 K, Crystal	247.89
333.15 K, Crystal	248.82
334.15 K, Crystal	249.61
335 K, Crystal	250.49
335.15 K, Crystal	250.35
336.15 K, Crystal	251.33
337.15 K, Crystal	251.96
338.15 K, Crystal	252.7
339.15 K, Crystal	253.75
340 K, Crystal	254.75
340.15 K, Crystal	254.49
341.15 K, Crystal	255.37
342.15 K, Crystal	256.24
343.15 K, Crystal	257.08
344.15 K, Crystal	258
345 K, Crystal	258.97
345.15 K, Crystal	258.77
346.15 K, Crystal	259.66
347.15 K, Crystal	260.52
348.15 K, Crystal	261.32
349.15 K, Crystal	262.12
350 K, Crystal	263.15
350.15 K, Crystal	262.98
351.15 K, Crystal	263.82
352.15 K, Crystal	264.56
353.15 K, Crystal	265.46
354.15 K, Crystal	266.43
355 K, Crystal	267.28
355.15 K, Crystal	268.62
356.15 K, Crystal	269.08
357.15 K, Crystal	269.64
358.15 K, Crystal	270.31
359.15 K, Crystal	271.05
360 K, Crystal	271.38
360.15 K, Crystal	271.91
361.15 K, Crystal	272.57
362.15 K, Crystal	273.45
363.15 K, Crystal	274.41
364.15 K, Crystal	275.15
365 K, Crystal	275.43
365.15 K, Crystal	275.9
366.15 K, Crystal	276.72
367.15 K, Crystal	277.6
368.15 K, Crystal	278.26
369.15 K, Crystal	279.12
370 K, Crystal	279.44
370.15 K, Crystal	280
371.15 K, Crystal	280.66
372.15 K, Crystal	281.41
373.15 K, Crystal	282.03
374.15 K, Crystal	282.8
375 K, Crystal	283.41
375.15 K, Crystal	283.66
376.15 K, Crystal	284.41
377.15 K, Crystal	285.16
378.15 K, Crystal	286.02
379.15 K, Crystal	286.77
380 K, Crystal	287.33
380.15 K, Crystal	287.5
381.15 K, Crystal	288.2
382.15 K, Crystal	289.07
383.15 K, Crystal	289.93
384.15 K, Crystal	290.58
385 K, Crystal	291.21
385.15 K, Crystal	291.5
386.15 K, Crystal	292.25
387.15 K, Crystal	292.92
388.15 K, Crystal	293.5
389.15 K, Crystal	294.35
390 K, Crystal	295.04
390.15 K, Crystal	295.24
391.15 K, Crystal	295.7
392.15 K, Crystal	296.49
393.15 K, Crystal	297.22
394.15 K, Crystal	297.96
395 K, Crystal	298.83
395.15 K, Crystal	298.67
396.15 K, Crystal	299.31
397.15 K, Crystal	300.06
398.15 K, Crystal	300.77
399.15 K, Crystal	301.51
400 K, Crystal	302.58
400.15 K, Crystal	302.31
401.15 K, Crystal	303.15
402.15 K, Crystal	303.73
403.15 K, Crystal	304.44
404.15 K, Crystal	305.17
405 K, Crystal	306.28
405.15 K, Crystal	306.03
406.15 K, Crystal	306.79
407.15 K, Crystal	307.48
408.15 K, Crystal	308.4
409.15 K, Crystal	309.1
410 K, Crystal	309.94
410.15 K, Crystal	309.8
411.15 K, Crystal	310.58
412.15 K, Crystal	311.34
413.15 K, Crystal	311.98
414.15 K, Crystal	312.89
415 K, Crystal	313.58
415.15 K, Crystal	313.72
416.15 K, Crystal	314.29
417.15 K, Crystal	315.14
418.15 K, Crystal	315.93
419.15 K, Crystal	316.51
420 K, Crystal	317.18
420.15 K, Crystal	317.13
421.15 K, Crystal	317.97
422.15 K, Crystal	318.68
423.15 K, Crystal	319.32
424.15 K, Crystal	320.07
425 K, Crystal	320.78
425.15 K, Crystal	320.77
426.15 K, Crystal	321.54
427.15 K, Crystal	322.27
428.15 K, Crystal	322.94
429.15 K, Crystal	323.6
430 K, Crystal	324.37
430.15 K, Crystal	324.79
431.15 K, Crystal	325.38
432.15 K, Crystal	325.96
433.15 K, Crystal	326.58
434.15 K, Crystal	327.17
435 K, Crystal	327.98
435.15 K, Crystal	328.13
436.15 K, Crystal	328.94
437.15 K, Crystal	329.55
438.15 K, Crystal	330.45
439.15 K, Crystal	331.25
440 K, Crystal	331.62
440.15 K, Crystal	332.08
441.15 K, Crystal	332.75
442.15 K, Crystal	333.52
443.15 K, Crystal	334.28
444.15 K, Crystal	334.91
445 K, Crystal	335.31
445.15 K, Crystal	335.69
446.15 K, Crystal	336.45
447.15 K, Crystal	337.11
448.15 K, Crystal	337.97
449.15 K, Crystal	338.86
450 K, Crystal	339.09
450.15 K, Crystal	339.61
451.15 K, Crystal	340.28
452.15 K, Crystal	340.91
453.15 K, Crystal	341.76
454.15 K, Crystal	342.6
455 K, Crystal	342.97
455.15 K, Crystal	343.62
456.15 K, Crystal	344.29
457.15 K, Crystal	345.24
458.15 K, Crystal	346.14
459.15 K, Crystal	346.94
460 K, Crystal	346.99
460.15 K, Crystal	347.73
461.15 K, Crystal	348.37
462.15 K, Crystal	349.07
463.15 K, Crystal	349.91
464.15 K, Crystal	350.64
465 K, Crystal	351.2
465.15 K, Crystal	351.55
466.15 K, Crystal	352.42
467.15 K, Crystal	353.08
468.15 K, Crystal	353.97
469.15 K, Crystal	354.86
470 K, Crystal	355.62
470.15 K, Crystal	355.7
471.15 K, Crystal	356.6
472.15 K, Crystal	357.44
473.15 K, Crystal	358.19
474.15 K, Crystal	359.01
475 K, Crystal	360.31
475.15 K, Crystal	359.91
476.15 K, Crystal	360.87
477.15 K, Crystal	361.75
478.15 K, Crystal	362.53
479.15 K, Crystal	363.44
480 K, Crystal	365.32
480.15 K, Crystal	364.51
481.15 K, Crystal	365.73
482.15 K, Crystal	366.73
485 K, Crystal	370.71
513.05 K, Liquid	508.49
513.15 K, Liquid	508.52
514.15 K, Liquid	508.4
515 K, Liquid	506.99
515.15 K, Liquid	507.66
516.15 K, Liquid	505.87
517.15 K, Liquid	506.07
518.15 K, Liquid	506.35
519.15 K, Liquid	506.73
520 K, Liquid	507.22
520.15 K, Liquid	506.91
521.15 K, Liquid	507.17
522.15 K, Liquid	507.28
523.15 K, Liquid	507.22
524.15 K, Liquid	507.46
525 K, Liquid	507.46
525.15 K, Liquid	506.85
526.15 K, Liquid	507.2
527.15 K, Liquid	506.47
528.15 K, Liquid	505.89
529.15 K, Liquid	506.19
530 K, Liquid	507.69
530.15 K, Liquid	507.15
531.15 K, Liquid	507.89
532.15 K, Liquid	508.08
533.15 K, Liquid	508.54
534.15 K, Liquid	508.66
535 K, Liquid	507.93
535.15 K, Liquid	508.27
536.15 K, Liquid	508.3
537.15 K, Liquid	508.67
538.15 K, Liquid	508.45
539.15 K, Liquid	508.21
540 K, Liquid	508.16
540.15 K, Liquid	508.39
541.15 K, Liquid	508.54
542.15 K, Liquid	508.33
543.15 K, Liquid	508.45
